Source: patent US20240293345A1, “COMBINATIONS OF LOCAL ANESTHETICS FOR IMPROVED PAIN RELIEF” (priority 2021, published 2024)

What was measured:
[1] = given subcutaneously; cited from earlier work
[2] = Case studies: local anesthesia by injection to the mouth region before dental procedures; format: in vivo, human; settings: for anesthetic effect of one local anesthetic alone: cases previously observed by the inventors; for local anesthetic effect / pain relief during dental procedures: patients with a history of poor pain relief after just one local anesthetic, injection to mouth region
From the text: The experiments and disclosures provided herein are based on 9 case studies performed on patients that had, or previously has had phenotype red hair. The inventors performed odontological procedures on the patients and compared pain relief to prior experiences with local anesthetics.
9 patients with a history of poor pain relief after administration of just one local anesthetic received a combination of lidocaine and prilocaine before various dental procedures where performed. The patients pain sensation was the noted in case studies kept at the inventor's clinic.
Commercially available Xylocain Dental Adrenaline (lidocaine HCL 20 mg/mL with epinephrine 12.5 μg/mL) and Citanest Dental Octopressin (prilocaine HCL 30 mg/mL and felypressin 0.54 μg/mL) was administered by injection to mouth region of the patient for pain relief. Both Xylocain Dental Adrenaline and Citanest Dental Octopressin was provided in cartridges containing 1.8 mL of solution comprising active ingredients in said concentrations.

[3] = local anesthesia or nerve blocks; cited from earlier work
[4] = Local anesthesia for a dislocated shoulder (incident described by patient 192293); format: in vivo, human; settings: three attempts of administration, patient's own account
[5] = in vivo; cited from earlier work

Row | Structure (SMILES) | anesthetic effects in redheads [1] | anesthetic effect of one local anesthetic alone [2] | local anesthetic effect / pain relief during dental procedures [2] | local anesthetic effect / pain relief during dental procedures ([2]; listed as Lidocaine) | onset of effect [3] | pain relief [4] | metabolism and excretion [5]
1 | CCN(CC)CC(=O)Nc1c(C)cccc1C [lidocaine] | resistant to the anesthetic effects | did not provide adequate anesthetic effect | Poor effect | not effective | within several minutes | without obtaining adequate pain relief | –
2 | CCN(CC)CCOC(=O)c1ccc(N)cc1 [novocaine] | resistant to the anesthetic effects | – | – | – | – | – | –
3 | CCCNC(C)C(=O)Nc1ccccc1C (stereo not drawn) [prilocaine] | – | did not provide adequate anesthetic effect | – | – | – | – | rapidly metabolized by the liver and excreted in the urine as o-toluidine
